Results taken from the NIST ThermoML archive (doi:10.1016/j.jct.2017.03.022).
± gives the expanded uncertainty stated by the source.

What was measured:
[1] = xn = mol fraction of the nth substance listed; details: 101 kPa, Liquid; for speed of sound: Frequency=3 MHz, Single path-length method; for mass density: Vibrating tube method
[2] = 101 kPa, Liquid, Vibrating tube method

CC(O)CO (stereo not given) [1,2-propanediol] + O=C1CCCN1
[1], x2 = 0
Details | mass density [kg/m3] | speed of sound [m/s]
303.15 K | 1028.94 ± 1 | 1496.6 ± 1.3
308.15 K | 1025.2 ± 1 | 1482.6 ± 1.3
313.15 K | 1021.43 ± 1 | 1468.5 ± 1.3
318.15 K | 1017.63 ± 1 | 1454.3 ± 1.3
323.15 K | 1013.79 ± 1 | 1440.1 ± 1.3

O=C1CCCN1 [2-pyrrolidinone] + OCCCO
[1], x1 = 1
Details | mass density [kg/m3] | speed of sound [m/s]
303.15 K | 1103.07 ± 1 | 1617.7 ± 1.2
308.15 K | 1098.99 ± 1 | 1601.3 ± 1.2
313.15 K | 1094.9 ± 1 | 1585.4 ± 1.2
318.15 K | 1090.82 ± 1 | 1570.4 ± 1.2
323.15 K | 1086.75 ± 1 | 1553.5 ± 1.2

OCCCO [propan-1,3-diol]
[2]
Details | mass density [kg/m3]
303.15 K | 1046.56 ± 1
308.15 K | 1043.43 ± 1
313.15 K | 1040.28 ± 1
318.15 K | 1037.11 ± 1
323.15 K | 1033.92 ± 1
